For one data set, the system named is Nup98. The data set can be described thus: cells. The data set is classed as cell-based. The following applies: Homo sapiens, HeLa, 24 hrs, read-out: Nup98 protein level, % of control.
The test system of data set [1] is VSV-GFP. The data set can be described thus: microbe, parasite or virus in culture. It counts as cell-based, Vesicular Stomatitis Virus.
A further data set concerns Rae1. The data set can be described thus: cells. It counts as cell-based. The following applies: Homo sapiens, HeLa, 24 hrs, read-out: Rae1 protein level, % of control.
For data set [2], the system named is VSV-GFP. It counts as cell-based, Vesicular Stomatitis Virus.
A further data set has as its system Flotillin-1. The data set can be described thus: cells. It counts as cell-based, human.
The next data set relates to MxA. It counts as cell-based, human. The following applies: 24 hrs.

Values joined by “and” are separate entries in the source; they are usually repeats but may differ in a detail not shown here. Equal values may be shown once. Read-outs that look alike come from different tables or passages of the source. Marks after values point to notes of the source that are not given here.

For the compound `CC[C@H](C)C(=O)O[C@H]1C[C@@H](C)C=C2C=C[C@H](C)[C@H](CC[C@@H]3C[C@@H](O)CC(=O)O3)[C@H]21` [lovastatin], in the data set on HeLa cells, the Cell survival is roughly 30% and the “Toxicity to HeLa cells” value is listed as “highly toxic”.

Take `CC[C@H](C)C(=O)O[C@H]1C[C@H](O)C=C2C=C[C@H](C)[C@H](CC[C@@H](O)C[C@@H](O)CC(=O)O)[C@H]21` [pravastatin]: the “Cell death rate, slope d” value in the data set with HeLa cells is on record as −1.20 % cells/μM Prava. Moreover, the “Cell death rate, slope c” value in the data set with HeLa cells (human) is −1.78 % cells/μM Prava.

`CCC(C)(C)C(=O)O[C@H]1C[C@@H](C)C=C2C=C[C@H](C)[C@H](CC[C@@H]3C[C@@H](O)CC(=O)O3)[C@H]21` [simvastatin]: the results for the activity at 0.125 µM in the data set on Nup98 (0.125 μM) and in the data set on Rae1 (0.125 μM) were 180% and 196%, respectively. Besides, the activity at 0.5 µM in the data set with Nup98 (0.5 μM) was 240%; with Rae1 (0.5 μM), 310%; in the data set on Flotillin-1 (Homo sapiens, HeLa, read-out: Flotillin-1 levels, % of control), roughly 75%. Also, the activity at 2 µM with Nup98 (2.0 μM) stood at 260%; in the data set on Rae1 (2.0 μM), 390%. For the same compound, the “Decrease of pfu in log-units” value with VSV-GFP [1] worked out at 2 log-units. Besides, in the data set on VSV-GFP [1], the “Fold lower pfu than control VSV-infected cells” value is recorded as 660 fold. For the same compound, in the data set on VSV-GFP [1], the “Pfu values (viral titer of supernatant)” value is given as 1.80×10^4 (+/−3×10^3) pfu/ml. Moreover, the IC50 in the data set with VSV-GFP [1] (Vesicular stomatitis virus, HeLa, read-out: Concentration needed for reduction of pfu values to half of control (IC50)) is 278 nM. The “Pretreatment time required to inhibit VSV protein levels” value in the data set with VSV-GFP [2] was no less than 4 h. Moreover, in the data set with HeLa cells, the “Cell death rate (Δ% cell death per ΔμM), slope b” value is on record as −2.61 % cells/μM Sim. Further, the “Slope a (m), relative trend of cell survival, FIG. 18” value in the data set on HeLa cells (0.125-2 μM 8 hrs) is reported as −6.54. In addition, the “Slope b (m), relative trend of cell survival, FIG. 18” value in the data set on HeLa cells (0.125-2 μM 8 hrs) is reported as −10.46. Further, the “Cell death rate (Δ% cell death per ΔμM), slope a” value with HeLa cells (human) is listed as −1.63 % cells/μM Sim. Also, the “Flotillin-1 levels, % of control” value in the data set with Flotillin-1 (0.125 µM) was ~160% and ~100%; in the data set with Flotillin-1 (0.5 µM), roughly 90%. Further, the MxA protein levels with MxA (0.125 μM) is roughly 400%; in the data set on MxA (0.5 μM), 650%; in the data set on MxA (2.0 μM), 150%.

On to Methyl-β-cyclodextrin [MβCD], for which, in the data set with VSV-GFP [1], the “Attenuation of viral titers by pretreatment” value was “attenuated”, the “Fold decrease of VSV titers” value is on record as 160 fold and the “VSV titer after pretreatment” value is reported as 5.25×10^4 (+/1−5.5×10^3) pfu/ml. In the data set on VSV-GFP [2], the “VSV G protein level, % of VSV control infection” value is 150% and 195% and 247% and 182% and 210%; the “VSV N/P protein level, % of VSV control infection” value was 153% and 220% and 150% and 275% and 147% and 162%. For the same compound, in the data set with HeLa cells, the Cell survival is roughly 20% and the “Toxicity to HeLa cells” value was “highly toxic”.

Values taken from US9289456B2 (priority 2010, dated 2016).
